Experimental data: patent US20230079819A1, “COMPOUNDS AND USES THEREOF” (Foghorn Therapeutics Inc., priority 2019, published 2023)
Read-outs that look alike come from different tables or passages of the source.

How the values were obtained:
BRM = target: T1, BRM (Homo sapiens, UniProt P51531); assay: ATPase catalytic activity of BRM, ADP-Glo in vitro biochemical assay; conditions: 30 nM BRM, 400 μM ATP, read-out: BRM IP50
T1 construct: made in house; host or cells: High Five insect cells

BRG-1 = target: T2, BRG-1 (Homo sapiens, UniProt P51532); assay: ATPase catalytic activity of BRG-1, ADP-Glo in vitro biochemical assay; conditions: 30 nM BRG-1, 400 μM ATP, read-out: BRG1 IP50
T2 construct: made in house; host or cells: High Five insect cells
T2 sequence (P51532 whole entry): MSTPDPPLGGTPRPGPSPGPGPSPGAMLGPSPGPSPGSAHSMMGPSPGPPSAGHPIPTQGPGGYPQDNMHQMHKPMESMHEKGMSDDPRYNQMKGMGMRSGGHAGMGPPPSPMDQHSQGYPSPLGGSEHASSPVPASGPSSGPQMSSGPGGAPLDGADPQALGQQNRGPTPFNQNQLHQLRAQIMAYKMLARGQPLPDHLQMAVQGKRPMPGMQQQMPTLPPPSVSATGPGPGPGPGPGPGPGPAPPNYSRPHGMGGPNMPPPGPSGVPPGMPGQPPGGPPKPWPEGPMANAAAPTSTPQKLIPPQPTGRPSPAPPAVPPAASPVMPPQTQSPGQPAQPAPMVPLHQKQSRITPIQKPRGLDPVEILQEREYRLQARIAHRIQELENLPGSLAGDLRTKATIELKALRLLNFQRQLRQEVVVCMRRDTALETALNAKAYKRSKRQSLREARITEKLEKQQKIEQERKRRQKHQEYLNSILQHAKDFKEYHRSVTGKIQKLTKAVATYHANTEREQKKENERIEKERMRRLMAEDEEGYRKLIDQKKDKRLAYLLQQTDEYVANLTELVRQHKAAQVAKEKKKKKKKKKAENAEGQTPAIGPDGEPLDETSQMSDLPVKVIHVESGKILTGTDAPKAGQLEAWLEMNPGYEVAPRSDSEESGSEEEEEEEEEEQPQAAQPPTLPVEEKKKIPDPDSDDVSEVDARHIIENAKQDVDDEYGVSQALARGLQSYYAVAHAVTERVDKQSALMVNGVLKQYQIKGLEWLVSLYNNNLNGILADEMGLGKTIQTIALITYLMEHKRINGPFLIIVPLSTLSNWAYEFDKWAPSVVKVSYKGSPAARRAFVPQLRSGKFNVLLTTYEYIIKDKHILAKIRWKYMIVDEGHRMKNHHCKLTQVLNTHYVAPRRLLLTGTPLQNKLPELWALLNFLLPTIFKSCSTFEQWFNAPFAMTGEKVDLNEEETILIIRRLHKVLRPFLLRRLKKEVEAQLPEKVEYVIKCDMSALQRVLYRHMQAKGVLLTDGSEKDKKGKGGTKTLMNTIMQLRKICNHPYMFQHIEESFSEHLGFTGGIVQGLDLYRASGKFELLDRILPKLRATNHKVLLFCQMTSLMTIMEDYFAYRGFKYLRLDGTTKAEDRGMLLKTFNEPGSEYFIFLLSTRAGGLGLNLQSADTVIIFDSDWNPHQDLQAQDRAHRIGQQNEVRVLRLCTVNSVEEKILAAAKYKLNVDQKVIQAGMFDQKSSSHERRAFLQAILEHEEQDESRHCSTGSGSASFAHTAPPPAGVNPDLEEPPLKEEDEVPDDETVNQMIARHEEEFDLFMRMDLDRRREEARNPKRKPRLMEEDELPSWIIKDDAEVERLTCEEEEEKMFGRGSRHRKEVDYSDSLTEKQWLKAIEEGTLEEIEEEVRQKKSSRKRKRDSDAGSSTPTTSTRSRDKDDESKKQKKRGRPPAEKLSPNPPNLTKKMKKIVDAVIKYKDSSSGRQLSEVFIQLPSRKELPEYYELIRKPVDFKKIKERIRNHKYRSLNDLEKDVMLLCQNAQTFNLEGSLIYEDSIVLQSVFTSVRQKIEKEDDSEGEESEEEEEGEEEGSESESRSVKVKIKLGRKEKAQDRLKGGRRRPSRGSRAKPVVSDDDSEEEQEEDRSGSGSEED

T1 sequence (P51531 whole entry): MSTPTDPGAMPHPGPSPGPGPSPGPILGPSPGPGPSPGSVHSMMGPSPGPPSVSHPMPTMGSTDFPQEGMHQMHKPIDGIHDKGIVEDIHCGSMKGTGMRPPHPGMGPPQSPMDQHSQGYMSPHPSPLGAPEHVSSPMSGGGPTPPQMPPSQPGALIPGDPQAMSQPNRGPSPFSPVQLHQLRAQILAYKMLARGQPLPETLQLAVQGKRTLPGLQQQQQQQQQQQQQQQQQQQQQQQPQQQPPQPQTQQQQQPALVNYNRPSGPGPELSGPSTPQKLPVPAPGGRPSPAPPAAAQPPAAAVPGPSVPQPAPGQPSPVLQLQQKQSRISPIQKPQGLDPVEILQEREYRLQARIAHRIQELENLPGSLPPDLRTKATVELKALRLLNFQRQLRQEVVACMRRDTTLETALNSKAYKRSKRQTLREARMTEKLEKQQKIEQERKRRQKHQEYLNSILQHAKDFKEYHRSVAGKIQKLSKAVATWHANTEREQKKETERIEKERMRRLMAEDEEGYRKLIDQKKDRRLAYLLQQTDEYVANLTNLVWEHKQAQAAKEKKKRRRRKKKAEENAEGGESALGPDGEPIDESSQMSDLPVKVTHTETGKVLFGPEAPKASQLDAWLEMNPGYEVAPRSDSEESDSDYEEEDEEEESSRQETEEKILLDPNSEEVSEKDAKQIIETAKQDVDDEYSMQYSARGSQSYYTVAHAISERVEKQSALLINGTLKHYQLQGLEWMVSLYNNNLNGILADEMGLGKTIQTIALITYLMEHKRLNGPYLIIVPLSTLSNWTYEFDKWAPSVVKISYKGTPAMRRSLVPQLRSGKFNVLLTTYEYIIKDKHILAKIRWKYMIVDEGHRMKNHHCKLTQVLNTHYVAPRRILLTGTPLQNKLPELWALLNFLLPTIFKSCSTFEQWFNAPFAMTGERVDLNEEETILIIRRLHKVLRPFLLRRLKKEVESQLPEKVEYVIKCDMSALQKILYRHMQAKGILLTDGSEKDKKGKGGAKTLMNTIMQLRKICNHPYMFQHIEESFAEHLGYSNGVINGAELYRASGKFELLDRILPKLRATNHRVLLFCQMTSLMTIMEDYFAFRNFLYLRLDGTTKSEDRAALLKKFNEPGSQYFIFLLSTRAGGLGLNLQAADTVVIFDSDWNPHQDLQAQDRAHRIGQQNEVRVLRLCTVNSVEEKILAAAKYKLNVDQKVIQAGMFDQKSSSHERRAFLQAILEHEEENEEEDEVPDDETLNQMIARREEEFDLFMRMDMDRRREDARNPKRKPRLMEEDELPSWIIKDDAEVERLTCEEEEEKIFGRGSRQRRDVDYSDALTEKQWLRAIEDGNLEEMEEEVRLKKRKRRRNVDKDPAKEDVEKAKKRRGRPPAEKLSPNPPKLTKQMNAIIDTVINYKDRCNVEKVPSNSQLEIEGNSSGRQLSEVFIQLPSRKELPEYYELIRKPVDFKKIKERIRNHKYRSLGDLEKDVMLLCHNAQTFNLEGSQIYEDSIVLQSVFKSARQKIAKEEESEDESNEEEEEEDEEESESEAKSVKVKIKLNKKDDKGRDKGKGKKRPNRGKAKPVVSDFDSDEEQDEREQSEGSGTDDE

Cn1ccc2ccc(-c3csc(NC(=O)CNC(=O)c4ncn(C56CC(C5)C6)n4)n3)cc2c1=O [Compound 782]
IC50 (BRM; ATPase catalytic activity): > 100 nM
IC50 (BRG-1; ATPase catalytic activity): > 100 nM

CN1CCOc2ccc(-c3csc(NC(=O)CNC(=O)c4cn(C(C)(C)C#N)cn4)n3)cc21 [Compound 784]
IC50 (BRM; ATPase catalytic activity): > 10 nM
IC50 (BRG-1; ATPase catalytic activity): > 10 nM

CC(C)(C#N)n1cnc(C(=O)NCC(=O)Nc2nc(-c3cc(F)c4c(c3)OCC4)cs2)c1 [Compound 785]
IC50 (BRM; ATPase catalytic activity): > 10 nM
IC50 (BRG-1; ATPase catalytic activity): > 10 nM

C[C@@H]1CN(c2cccc(-c3csc(NC(=O)CNC(=O)c4ccn(C(C)(C)C#N)n4)n3)n2)C[C@H](C)O1 [Compound 786]
IC50 (BRM): < 10 nM
IC50 (BRG-1): > 10 nM

CN1CCOc2ccc(-c3csc(NC(=O)CNC(=O)c4ccn(C(C)(C)C#N)n4)n3)cc21 [Compound 787]
IC50 (BRM): > 10 nM
IC50 (BRG-1): > 10 nM

N#CC1(n2cnc(C(=O)NCC(=O)Nc3nc(-c4cc(F)c5c(c4)OCC5)cs3)c2)CC1 [Compound 788]
IC50 (BRM): > 100 nM
IC50 (BRG-1): > 100 nM

Cn1ccc(-c2cccc(-c3csc(NC(=O)CNC(=O)c4ccn(C(C)(C)C#N)n4)n3)c2)n1 [Compound 790]
IC50 (BRM): > 10 nM
IC50 (BRG-1): > 10 nM

CC(C)(C#N)n1ccc(C(=O)NCC(=O)Nc2nc(-c3cc(F)c4c(c3)OCC4)cs2)n1 [Compound 791]
IC50 (BRM): > 10 nM
IC50 (BRG-1): > 10 nM

C[C@H](NC(=O)c1ccn(C(C)(C)C)n1)C(=O)Nc1nc(-c2ccc3ccn(C)c(=O)c3c2)cs1 [Compound 792]
IC50 (BRM): > 100 nM
IC50 (BRG-1): > 100 nM

Cn1ccc2ccc(-c3csc(NC(=O)CNC(=O)c4ccn(C5(C#N)CC5)n4)n3)cc2c1=O [Compound 793]
IC50 (BRM): > 10 nM
IC50 (BRG-1): > 10 nM

N#CC1(n2ccc(C(=O)NCC(=O)Nc3nc(-c4cccc(OC(F)(F)F)c4)cs3)n2)CC1 [Compound 794]
IC50 (BRM): > 100 nM
IC50 (BRG-1): > 100 nM

C[C@@H]1CN(c2cccc(-c3csc(NC(=O)[C@H](C)NC(=O)c4ccn(C5(C#N)CC5)n4)n3)n2)C[C@H](C)O1 [Compound 795]
IC50 (BRM): > 10 nM
IC50 (BRG-1): > 100 nM

N#CC1(n2ccc(C(=O)NCC(=O)Nc3nc(-c4cc(F)cc(OC5CC5)c4)cs3)n2)CC1 [Compound 796]
IC50 (BRM): > 100 nM
IC50 (BRG-1): > 100 nM

C[C@@H]1CN(c2cccc(-c3csc(NC(=O)[C@H](C)NC(=O)c4cn(C5(C)COC5)cn4)n3)n2)C[C@H](C)O1 [Compound 797]
IC50 (BRM): > 100 nM
IC50 (BRG-1): > 100 nM

Cn1ccc(-c2cccc(-c3csc(NC(=O)CNC(=O)c4ccn(C5(C)COC5)n4)n3)c2)n1 [Compound 798]
IC50 (BRM): > 100 nM
IC50 (BRG-1): > 100 nM

C[C@H](NC(=O)c1cn(C2(C)COC2)cn1)C(=O)Nc1nc(-c2ccc3ccn(C)c(=O)c3c2)cs1 [Compound 801]
IC50 (BRM): > 100 nM
IC50 (BRG-1): > 100 nM

COC[C@H](NC(=O)c1cn(C(C)(C)C#N)cn1)C(=O)Nc1nc(-c2ccc3ccn(C)c(=O)c3c2)cs1 [Compound 802]
IC50 (BRM): > 10 nM
IC50 (BRG-1): > 10 nM

N#CC1(n2ccc(C(=O)NCC(=O)Nc3nc(-c4cc(F)c5c(c4)OCC5)cs3)n2)CC1 [Compound 803]
IC50 (BRM): > 10 nM
IC50 (BRG-1): > 100 nM

COC[C@H](NC(=O)c1cn(C2(C)COC2)cn1)C(=O)Nc1nc(-c2ccc3ccn(C)c(=O)c3c2)cs1 [Compound 804]
IC50 (BRM): > 100 nM
IC50 (BRG-1): > 100 nM

C[C@H](NC(=O)c1ccn(C2(C#N)CC2)n1)C(=O)Nc1nc(-c2ccc3ccn(C)c(=O)c3c2)cs1 [Compound 805]
IC50 (BRM): > 100 nM
IC50 (BRG-1): > 100 nM

C[C@@H]1CN(c2cccc(-c3csc(NC(=O)CNC(=O)c4ccn(C5(C#N)CC5)n4)n3)n2)C[C@H](C)O1 [Compound 806]
IC50 (BRM): > 10 nM
IC50 (BRG-1): > 10 nM

CN1CCOc2ccc(-c3csc(NC(=O)CNC(=O)c4ccn(C5(C#N)CC5)n4)n3)cc21 [Compound 811]
IC50 (BRM): > 10 nM
IC50 (BRG-1): > 100 nM

COC[C@H](NC(=O)c1ccn(C2(C#N)CC2)n1)C(=O)Nc1nc(-c2ccc3ccn(C)c(=O)c3c2)cs1 [Compound 812]
IC50 (BRM): > 100 nM
IC50 (BRG-1): > 100 nM

Cn1ccc(-c2cccc(-c3csc(NC(=O)CNC(=O)c4ccn(C5(C#N)CC5)n4)n3)c2)n1 [Compound 813]
IC50 (BRM): > 10 nM
IC50 (BRG-1): > 100 nM

N#CC1(n2ccc(C(=O)NCC(=O)Nc3nc(-c4cccc(N5CCC5)c4)cs3)n2)CC1 [Compound 814]
IC50 (BRM): > 10 nM
IC50 (BRG-1): > 100 nM

COC[C@H](NC(=O)c1ccn(C2(C#N)CC2)n1)C(=O)Nc1nc(-c2cccc(-c3ccn(C)n3)c2)cs1 [Compound 815]
IC50 (BRM): > 100 nM
IC50 (BRG-1): > 100 nM

COC[C@H](NC(=O)c1ccn(C(C)(C)C#N)n1)C(=O)Nc1nc(-c2ccc3ccn(C)c(=O)c3c2)cs1 [Compound 816]
IC50 (BRM): > 10 nM
IC50 (BRG-1): > 10 nM

COC[C@H](NC(=O)c1ccn(C(C)(C)C#N)n1)C(=O)Nc1nc(-c2cc(C)cc(N3C[C@@H](C)O[C@@H](C)C3)n2)cs1 [Compound 817]
IC50 (BRM): > 10 nM
IC50 (BRG-1): > 10 nM

COC[C@H](NC(=O)c1cn(C(C)(C)C#N)cn1)C(=O)Nc1nc(-c2cc(C)cc(N3C[C@@H](C)O[C@@H](C)C3)n2)cs1 [Compound 818]
IC50 (BRM): > 10 nM
IC50 (BRG-1): > 10 nM

C[C@@H]1CN(c2cccc(-c3csc(NC(=O)CNC(=O)c4cn(C(C)(C)C#N)cn4)n3)n2)C[C@H](C)O1 [Compound 819]
IC50 (BRM): > 10 nM
IC50 (BRG-1): > 10 nM

CC(C)(C)c1cnc(C(=O)NCC(=O)Nc2nc(-c3cccc(N4CCC4)c3)cs2)s1 [Compound 820]
IC50 (BRM): > 100 nM
IC50 (BRG-1): > 100 nM

COC[C@H](NC(=O)c1ncc(C(C)(C)C)o1)C(=O)Nc1nc(-c2cccc(-c3cnn(C)n3)c2)cs1 [Compound 821]
IC50 (BRM): > 10 nM
IC50 (BRG-1): > 10 nM

C[C@@H]1CN(c2cccc(-c3csc(NC(=O)CNC(=O)c4ncc(C(C)(C)C)s4)n3)n2)C[C@H](C)O1 [Compound 822]
IC50 (BRM): > 10 nM
IC50 (BRG-1): > 100 nM

C[C@@H]1CN(c2cccc(-c3csc(NC(=O)CNC(=O)c4ncc(C(C)(C)C)o4)n3)c2)C[C@H](C)O1 [Compound 823]
IC50 (BRM): < 10 nM
IC50 (BRG-1): > 10 nM

COc1cnc(C(=O)NCC(=O)Nc2nc(-c3cccc(N4C[C@@H](C)O[C@@H](C)C4)n3)cs2)o1 [Compound 824]
IC50 (BRM): > 100 nM
IC50 (BRG-1): > 100 nM

COC[C@H](NC(=O)c1ncc(C(C)(C)C)o1)C(=O)Nc1nc(-c2cc(F)cc(-c3cnn(C)n3)c2)cs1 [Compound 825]
IC50 (BRM): < 10 nM
IC50 (BRG-1): > 10 nM

C[C@@H]1CN(c2cccc(-c3csc(NC(=O)CNC(=O)c4ncc(C5(C)COC5)o4)n3)n2)C[C@H](C)O1 [Compound 826]
IC50 (BRM): > 10 nM
IC50 (BRG-1): > 10 nM

C[C@@H]1CN(c2cccc(-c3csc(NC(=O)CNC(=O)c4ncc(C(C)(C)C)o4)n3)n2)C[C@H](C)O1 [Compound 827]
IC50 (BRM): < 10 nM
IC50 (BRG-1): > 10 nM
